# Molecular target: T1, PIKfyve (Homo sapiens, UniProt Q9Y2I7)
# T1 construct: T7 phage fusion (kinase-tagged phage) or DNA tag for qPCR; made in house; host or cells: E. coli BL21-derived host (T7 phage) for most kinases, HEK-293 for the rest
# Assay: Kinase binding assay (kinase-tagged T7 phage, affinity beads, qPCR readout), Kd determination
# Settings: 11-point 3-fold dilution series
# Experimental: Kinase assays. For most assays, kinase-tagged T7 phage strains were prepared in an E. coli host derived from the BL21 strain. E. coli were grown to log-phase and infected with T7 phage and incubated with shaking at 32° C. until lysis. The lysates were centrifuged and filtered to remove cell debris. The remaining kinases were produced in HEK-293 cells and subsequently tagged with DNA for qPCR detection. Streptavidin-coated magnetic beads were treated with biotinylated small molecule ligands for 30 minutes at room temperature to generate affinity resins for kinase assays. The liganded beads were blocked with excess biotin and washed with blocking buffer (SeaBlock (Pierce), 1% BSA, 0.05% Tween 20, 1 mM DTT) to remove unbound ligand and to reduce non-specific binding. Binding reactions were assembled by combining kinases, liganded affinity beads, and test compounds in 1× binding buffer (20% SeaBlock, 0.17×PBS, 0.05% Tween 20, 6 mM DTT). Test compounds were prepared as 111× stocks in 100% DMSO. Kds were determined using an 11-point 3-fold compound dilution series with three DMSO control points. All compounds for Kd measurements are distributed by acoustic transfer (non-contact dispensing) in 100% DMSO. The compounds were then diluted directly into the assays such that the final concentration of DMSO was 0.9%. All reactions performed in polypropylene 384-well plate. Each was a final volume of 0.02 ml. The assay plates were incubated at room temperature with shaking for 1 hour and the affinity beads were washed with wash buffer (1×PBS, 0.05% Tween 20). The beads were then re-suspended in elution buffer (1×PBS, 0.05% Tween 20, 0.5 μM non-biotinylated affinity ligand) and incubated at room temperature with shaking for 30 minutes. The kinase concentration in the eluates was measured by qPCR.
# An 11-point 3-fold serial dilution of each test compound was prepared in 100% DMSO at 100× final test concentration and subsequently diluted to 1× in the assay (final DMSO concentration=1%). Most Kds were determined using a compound top concentration=30,000 nM. If the initial Kd determined was <0.5 nM (the lowest concentration tested), the measurement was repeated with a serial dilution starting at a lower top concentration.
# T1 sequence (Q9Y2I7 whole entry, the tested form may be a part): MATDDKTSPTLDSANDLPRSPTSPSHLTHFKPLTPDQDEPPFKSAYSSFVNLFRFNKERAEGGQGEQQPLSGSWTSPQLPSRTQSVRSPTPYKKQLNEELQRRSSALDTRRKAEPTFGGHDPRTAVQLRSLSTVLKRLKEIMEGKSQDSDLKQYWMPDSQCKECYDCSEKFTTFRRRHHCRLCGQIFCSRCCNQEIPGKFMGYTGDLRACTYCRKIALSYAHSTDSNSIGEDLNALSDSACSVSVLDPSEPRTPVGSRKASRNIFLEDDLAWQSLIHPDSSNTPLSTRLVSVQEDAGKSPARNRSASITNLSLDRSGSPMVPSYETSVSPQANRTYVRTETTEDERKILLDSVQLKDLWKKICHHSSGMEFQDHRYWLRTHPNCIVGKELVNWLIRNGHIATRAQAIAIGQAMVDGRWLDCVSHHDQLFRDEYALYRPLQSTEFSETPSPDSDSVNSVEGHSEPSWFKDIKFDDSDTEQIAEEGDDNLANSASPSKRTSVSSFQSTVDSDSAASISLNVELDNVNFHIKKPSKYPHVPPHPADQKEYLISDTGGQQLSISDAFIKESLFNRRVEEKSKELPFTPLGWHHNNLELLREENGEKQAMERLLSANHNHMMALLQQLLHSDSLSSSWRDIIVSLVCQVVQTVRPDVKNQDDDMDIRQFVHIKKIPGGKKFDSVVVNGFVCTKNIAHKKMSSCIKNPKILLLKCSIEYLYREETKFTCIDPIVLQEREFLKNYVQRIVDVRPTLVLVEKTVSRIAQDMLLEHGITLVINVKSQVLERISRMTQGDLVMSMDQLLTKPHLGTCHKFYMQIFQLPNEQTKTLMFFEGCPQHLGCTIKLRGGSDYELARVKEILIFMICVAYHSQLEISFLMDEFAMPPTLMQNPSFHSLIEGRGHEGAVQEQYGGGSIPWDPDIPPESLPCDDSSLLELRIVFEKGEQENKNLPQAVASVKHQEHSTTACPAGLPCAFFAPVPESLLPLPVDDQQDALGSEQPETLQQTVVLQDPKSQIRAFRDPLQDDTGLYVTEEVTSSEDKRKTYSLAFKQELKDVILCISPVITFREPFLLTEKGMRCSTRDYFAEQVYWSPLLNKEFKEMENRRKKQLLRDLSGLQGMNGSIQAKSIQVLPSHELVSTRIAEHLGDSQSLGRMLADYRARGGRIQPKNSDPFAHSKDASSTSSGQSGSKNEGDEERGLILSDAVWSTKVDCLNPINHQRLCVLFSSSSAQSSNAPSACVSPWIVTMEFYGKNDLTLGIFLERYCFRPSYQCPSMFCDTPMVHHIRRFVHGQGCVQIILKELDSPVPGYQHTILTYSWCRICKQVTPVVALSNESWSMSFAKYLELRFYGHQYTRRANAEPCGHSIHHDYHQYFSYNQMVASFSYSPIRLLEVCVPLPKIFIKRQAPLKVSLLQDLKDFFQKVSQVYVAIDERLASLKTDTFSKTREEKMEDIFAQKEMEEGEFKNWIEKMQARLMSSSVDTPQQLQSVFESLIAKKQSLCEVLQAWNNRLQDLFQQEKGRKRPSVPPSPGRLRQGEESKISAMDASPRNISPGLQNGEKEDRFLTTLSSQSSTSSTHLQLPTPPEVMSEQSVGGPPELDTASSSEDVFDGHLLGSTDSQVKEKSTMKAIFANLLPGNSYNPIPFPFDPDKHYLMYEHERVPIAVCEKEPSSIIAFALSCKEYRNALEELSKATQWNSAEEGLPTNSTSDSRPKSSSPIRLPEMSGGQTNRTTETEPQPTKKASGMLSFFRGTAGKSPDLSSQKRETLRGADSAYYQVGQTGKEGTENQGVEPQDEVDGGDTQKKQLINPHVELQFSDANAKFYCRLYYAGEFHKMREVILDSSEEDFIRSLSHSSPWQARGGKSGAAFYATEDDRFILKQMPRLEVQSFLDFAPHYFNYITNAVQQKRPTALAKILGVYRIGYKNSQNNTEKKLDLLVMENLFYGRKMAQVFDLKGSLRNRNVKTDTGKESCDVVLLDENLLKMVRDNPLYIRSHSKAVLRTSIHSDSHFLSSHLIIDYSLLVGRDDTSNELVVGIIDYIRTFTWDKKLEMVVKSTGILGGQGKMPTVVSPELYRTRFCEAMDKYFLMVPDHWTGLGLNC
row,Kd,Compound
1,1 to 5 nM,"Cc1cccc(/C=N/Nc2nc3c(c(N4CCOCC4)n2)CN(C(=O)NC2COC2)C3)c1 [Example 27, 4-morpholino-2-[(2E)-2-(m-tolylmethylene)hydrazino]-N-(oxetan-3-yl)-5,7-dihydropyrrolo[3,4-d]pyrimidine-6-carboxamide]"
2,1 to 5 nM,"Cc1cccc(/C=N/Nc2nc3c(c(N4CCOCC4)n2)CN(S(=O)(=O)c2cccc(C(=O)O)c2)C3)c1 [Example 16, 3-[[4-morpholino-2-[(2E)-2-(m-tolylmethylene)hydrazino]-5,7-dihydropyrrolo[3,4-d]pyrimidin-6-yl]sulfonyl]benzoic acid]"
